Data on nine compounds can be found in US8809500B2, “Complexes comprising mammalian raptor polypeptide and mammalian mTOR polypeptide” (Whitehead Institute For Biomedical Research, priority 2002, dated 2014).

The target of experiment [1] is T1, mTOR (Homo sapiens, UniProt P42345).
T1 construct: the kinase activity of immunoprecipitates of endogenous mTOR depends on the presence of mTOR; endogenous in cells; host or cells: HEK293T
Kind of experiment: In vitro kinase assay for mTOR activity, endogenous mTOR immunoprecipitates, GST-S6K1 substrate. The format is biochemical. Conditions: for sensitivity of kinase activity of immunoprecipitates of endogenous mTOR: 20 μM inhibitor, added 10 minutes prior to kinase assay; for effect on mTOR kinase activity of mTOR immunoprecipitates from treated cells: cells treated for 10 minutes: 500 mM sucrose, 1 mM H2O2, 1 μm valinomycin A, 100 mM 2-deoxyglucose. How it is done: FIG. 8A is a gel showing deprivation of amino acids, leucine, or glucose increases the stability of raptor-mTOR complex and decreases mTOR kinase activity, effects reversed by stimulation with leucine or glucose. HEK293T cells were incubated for 50 minutes in RPMI lacking amino acids (−amino acids), leucine (−leucine), or glucose (−glucose) or left untreated (control). Duplicate plates of cells deprived of leucine or glucose were stimulated for 10 minutes with 52 μg/ml leucine (−leu+leu) or 11 mM glucose (−gluc+gluc), respectively. Cells were lysed, anti-mTOR immunoprecipitates prepared, and mTOR kinase activity determined with in vitro kinase assays containing ATP-[γ-^32P] and a GST-S6K1 fusion protein (Burnett et al., PNAS 95:1432-1437 (1998)). Kinase reactions were resolved by SDS-PAGE, proteins transferred to PVDF, ^32P-incorporation into GST-S6K1 detected with autoradiography (third panel from top) and levels of mTOR (top panel) and raptor (middle panel) determined by immunoblotting. Western blot analyses of cell lysates used to prepare mTOR immunoprecipitates showing effects of nutrient conditions on the phosphorylation state and gel mobility of S6K1 in vivo (bottom two panels).
Kinase assays were performed in a volume of 10 μl at 30° C. for 20 min and contained ¼ the washed mTOR immunoprecipitates from 10 million HEK293T cells growing on a 10-cm dish, 200 ng of a GST-S6K1 fusion protein (amino acids 332-502), 1 μCi of [γ-^32P]ATP, 25 mM Hepes-KOH, pH 7.4, 50 mM KCl, 20% glycerol, 10 mM MgCl2, 4 mM MnCl2, 1 mM DTT, and 50 μM unlabeled ATP. When inhibitors were used they were added to the mTOR immunoprecipitates 10 minutes prior to the start of the kinase assay. Reactions were stopped by the addition of 5 μl of 2× sample buffer. After boiling the samples for 3 min, proteins were resolved by 8% SDS-PAGE, transferred to PVDF (poly(vinylidene difluoride)), and phosphorylated proteins visualized with autoradiography. The same blots were then used to determine the levels of mTOR and raptor by western analysis. Kinase assays using recombinant mTOR were performed as described in Burnett et al., PNAS, 95:1432-1437 (1998), except that they were washed as above with Buffer B.

For experiment [2], the target named is T2, mTOR-raptor complex (Homo sapiens, UniProt P42345+P62942).
T2 construct: endogenous in cells
Kind of experiment: mTOR-raptor interaction: raptor co-precipitated in mTOR immunoprecipitates (western blot). The format is cell-based. Conditions: for effect on mTOR-raptor interaction (complex stability): cells treated for 10 minutes: 500 mM sucrose, 1 mM H2O2, 1 μm valinomycin A, 100 mM 2-deoxyglucose. The text has this: Unless otherwise stated, for mTOR immunoprecipitates prepared in the absence of the cross-linker, cells were lysed in ice-cold Buffer B (Buffer A in which Triton X-100 is replaced by 0.3% CHAPS) and immunoprecipitates were washed four times in Buffer B and twice in Wash Buffer 2.
(A western blot detects proteins with antibodies after separation by electrophoresis.)

In experiment [3] the test system is S6K1. Description: In vivo phosphorylation state of S6K1 (T389) in cell lysates by western blot. Type of experiment: cell-based, human.
For experiment [4], the system named is HEK293T cells. Kind of experiment: Leucine-induced growth experiment (cell size after leucine re-addition). To be noted: HEK293T deprived of leucine 24 hours, then leucine 52 μg/ml; size at 6 and 10 hours; rapamycin added with leucine.
Method: Cells were transfected with the indicated siRNAs and the experiment performed as described herein. […] Shown are mean±S.D. from samples for each time point.
(§1) Cells were then harvested, diluted 1:10 or 1:20 and replated in fresh media. At 1, 2, and 3 days after replating, the cells were harvested by trypsinization in 2 ml media, diluted 1:20 with counting solution (Isoflow Sheath Fluid, Coulter Corp.) and cell diameters and volumes determined using a particle size counter (Coulter Multisizer II). Cells between 11 and 21 μm in diameter were used for analysis. For the leucine-induced growth experiment, the siRNA transfected cells were diluted into fresh media one day after transfection and, at 24 hours after dilution the cells were deproved of leucine for a further 24 hours. The cells were then provided with leucine (52 μg/ml) and cell diameters, volumes, and numbers determined as above at 6 and 10 hours after the leucine supplementation.
Leucine was then added to the media and cell size measured at 6 and 10 hours after leucine addition.
Experiment [5] has as its system HEK293T cells. Description: Cell size determination in actively growing cells (Coulter Multisizer II). Conditions: three days after siRNA transfection or 20 nM rapamycin for 48 hours.
Method: Cell diameters and volumes were determined three days after transfection using a particle size counter (Coulter Multisizer II). […] Mean±S.D. values were obtained from the indicated numbers of independent trials in which at least 10,000 cells were analyzed per trial.
as §1
The mark [6] stands for this setting: insulin 200 nM for 25 minutes, HEK293T in serum-free media for 24 hours.

Take `COc1cccc(-c2cc(=O)c3ccccc3o2)c1N` [PD98059]: in experiment [1], the “sensitivity of kinase activity of immunoprecipitates of endogenous mTOR” value is “not”.
Consider `CC(C)[C@@H]1NC(=O)[C@H](C)OC(=O)[C@@H](C(C)C)NC(=O)[C@@H](C(C)C)OC(=O)[C@H](C(C)C)NC(=O)[C@H](C)OC(=O)[C@@H](C(C)C)NC(=O)[C@@H](C(C)C)OC(=O)[C@H](C(C)C)NC(=O)[C@H](C)OC(=O)[C@@H](C(C)C)NC(=O)[C@@H](C(C)C)OC1=O` [valinomycin], for which the “effect on mTOR-raptor interaction (complex stability)” value (from here on “effect … (complex stability)”) in experiment [2] was “stabilized the mTOR-raptor interaction”. For the same compound, the “effect on mTOR kinase activity of mTOR immunoprecipitates from treated cells” value (“effect on mTOR kinase activity” for short) in experiment [1] is on record as “inhibited mTOR kinase activity”.
With insulin, the “effect on mTOR-raptor interaction” value in experiment [2] (setting [6]) is on record as “did not affect the raptor-mTOR interaction”. In experiment [3] (setting [6]), the “effect on phosphorylation state of S6K1” value is recorded as “increased the phosphorylation state of S6K1”.
As to `CNCCNS(=O)(=O)c1cccc2cnccc12` [H-8], the “sensitivity of kinase activity of immunoprecipitates of endogenous mTOR” value in experiment [1] is listed as “not”.
For `OC[C@H]1O[C@@](CO)(O[C@H]2O[C@H](CO)[C@@H](O)[C@H](O)[C@H]2O)[C@@H](O)[C@@H]1O` [sucrose], the “effect … (complex stability)” value in experiment [2] is “only a modest effect”. Besides, the “effect on phosphorylation state of S6K1” value in experiment [3] (cells treated for 10 minutes with 500 mM sucrose) was “decreased the phosphorylation state of S6K1”. Moreover, in experiment [1], the “effect on mTOR kinase activity” value is listed as “only a modest effect”.
With `O=CC[C@@H](O)[C@H](O)[C@H](O)CO` [2-deoxyglucose], the “effect … (complex stability)” value in experiment [2] is reported as “stabilized the mTOR-raptor interaction”. Moreover, the “effect on mTOR kinase activity” value in experiment [1] is listed as “inhibited mTOR kinase activity”.
For antimycin A, in that order: “stabilized the mTOR-raptor interaction” and “inhibited mTOR kinase activity”.
Regarding `OO` [H2O2], in experiment [2], the “effect … (complex stability)” value is recorded as “stabilized the interaction”. Further, the “effect on mTOR kinase activity” value in experiment [1] is reported as “inhibited the mTOR kinase”.
Take `CO[C@H]1C[C@@H]2CC[C@@H](C)[C@@](O)(O2)C(=O)C(=O)N2CCCC[C@H]2C(=O)O[C@H]([C@H](C)C[C@@H]2CC[C@@H](O)[C@H](OC)C2)CC(=O)[C@H](C)/C=C(\C)[C@@H](O)[C@@H](OC)C(=O)[C@H](C)C[C@H](C)/C=C/C=C/C=C/1C` [rapamycin]: the “growth rate after leucine addition” value in experiment [4] is 1.02 % volume per hour. Besides, the “cell diameter, mean±S.D.” value in experiment [5] came out at 14.61±0.10 μm.
